Results as given in PubChem BioAssay AID1204 (EPA DSSTox, 2008).
Inconclusive results are not listed. The source made the active and inactive calls.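 Rule for the calls: active = relative estrogen receptor binding affinity above 1E-5, where estradiol scores 100; inconclusive = weak binder, under half inhibition at top dose, or affinity below 1E-5; inactive = no binding seen, affinity zero.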

System: estrogen receptor (rat uterine cytosol)
Test: DSSTox (NCTRER) National Center for Toxicological Research Estrogen Receptor Binding Database;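 for relative binding affinity: ratio of estradiol IC50 over compound IC50 times 100 so estradiol equals 100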
Settings: rat uterine cytosol ER competitive binding, RBA; for relative binding affinity: stronger effect = higher value
From the text: Researchers within FDA's National Center for Toxicological Research (NCTR) generated a database of experimental estrogen receptor binding results for the express purpose of developing improved QSAR models to predict ER binding affinities.The NCTR ER database is a structurally diverse set of natural, synthetic, and environmental estrogens covering most known estrogenic classes and spanning a wide range of biological activity. It represents the largest published ER binding database of same-assay results generated in a single laboratory. […] Information on the percent purity and purchasing source for all chemicals are not included in the DSSTox SDF, but can be obtained from the original NCTR ER Source database and Main Citations listed below. The main citation (Fang et al., 2001) surveys the NCTR ER database from a chemical class based, structure-activity relationship (SAR) perspective. Qualitative SAR characteristics of the NCTR ER database are discussed and a set of general hierarchical rules for identifying potential estrogens are presented. The DSSTox NCTRER SDF augments the original NCTR ER database with chemical class and SAR information abstracted from Fang et al. (2001). The DSSTox SDF file supplements the measured ER relative binding affinity for each chemical (ER_RBA) with chemical class assignment to one of 6 major estrogenic classes further divided into 20 subclasses (ChemClass_ERB), along with a qualitative activity measure, ActivityCategory_ER_RBA. A brief narrative SAR rationale pertaining to ER RBA patterns observed by Fang et al. (2001) for each of the 20 subclasses within the database are provided in the field, ActivityCategory_Rationale_ChemClass_ERB. The original NCTR ER database, from which the expanded DSSTox NCTRER was formed, is contained within a larger Endocrine Disruptor Knowledge Base (EDKB) accessible from the FDA Source Website. That website provides online access to a relational database comprised of in vitro and in vivo experimental data for about 2000 natural and synthetic compounds, much of this extracted from the literature and representing testing in many laboratories. Data are included for biological assays that measure estrogenic and androgenic activity. Estrogenic endpoints include in vitro assays for estrogen receptor competitive binding affinity, cell proliferation, and reporter-gene assays, and in vivo assays for uterotrophic activity (i.e., uterine weight gain and vaginal cornification). The database also contains a bibliography of over 1200 citations, many of which include abstracts.
Estrogen receptor relative binding affinity is determined using a competitive receptor binding assay as described in NCTRER Ref (Blair et al., 2000). Briefly, a chemical competes with radiolabeled E2 (i.e., estradiol) for binding to the ER in rat uterine cytosol and the concentration of chemical that causes 50% inhibition of E2 binding (i.e., IC50) is measured. The ER_RBA is calculated by dividing the IC50 of E2 (9X10-10M) by the IC50 of the competitor and multiplying by 100 (E2 RBA = 100). The validated assay tested 1nM E2 with concentrations of competitor ranging from 1nM to 1mM. The larger the ER_RBA values, the greater the binding affinity; ER_RBA > 100 means compound has greater binding affinity than natural ER ligand, E2. […] Activity Score is mapping of LOG_ER_RBA values (ER-RBA>1E-5), spanning activity range [MIN, MAX] onto Integer 20-100 Activity range, where 100 is highest potency and 20 is lowest active potency. If Activity Outcome is "active": Activity Score = 80 * INTEGER[(LOG_ER_RBA - MIN)/(MAX […] MIN)]. If Activity Outcome is "inconclusive" (i.e., slight binder): Activity Score = 5.

[1] = ChemClass_ERB: Steroids Without aromatic A ring
[2] = ChemClass_ERB: DES Hexestrol derivatives
[3] = ChemClass_ERB: Diphenylmethanes Benzophenones
[4] = ChemClass_ERB: Phytoestrogens Flavanones
[5] = ChemClass_ERB: Phytoestrogens Flavones
[6] = ChemClass_ERB: Diphenylmethanes Diphenolalkanes
[7] = ChemClass_ERB: Diphenylmethanes DDTs
[8] = ChemClass_ERB: Steroids With aromatic A ring

C[C@]12CC[C@H]3[C@@H](CCC4=CC(=O)CC[C@@]43C)[C@@H]1CC[C@H]2O
outcome [1]: inactive

C/C=C(/C(=C/C)c1ccc(O)cc1)c1ccc(O)cc1
relative binding affinity [2]: 37.1%

COC(=O)c1ccccc1C(=O)OC
outcome (ChemClass_ERB: Misc): inactive

CCc1cccc(C)c1N(C(=O)CCl)C(C)COC (stereo not given)
outcome (ChemClass_ERB: Misc): inactive

COc1ccc(C(=O)c2ccccc2)c(O)c1
outcome [3]: inactive

CCC(c1ccc(O)c(O)c1)C(CC)c1ccc(O)c(O)c1 (stereo not given)
relative binding affinity [2]: 15.5%

C[C@@H]1O[C@@H](O[C@H]2[C@H](Oc3cc(O)c4c(c3)O[C@H](c3ccc(O)cc3)CC4=O)O[C@H](CO)[C@@H](O)[C@@H]2O)[C@H](O)[C@H](O)[C@H]1O
outcome [4]: inactive

CC[C@@H](c1ccc2cc(O)ccc2c1)C(C)(C)C(=O)O
relative binding affinity (ChemClass_ERB: Misc): 0.955%

Oc1ccccc1
outcome (ChemClass_ERB: Phenols Alkyl): inactive

C[C@]12CC[C@@H](O)C[C@@H]1CC[C@@H]1[C@@H]2CC[C@]2(C)[C@@H](O)CC[C@@H]12
relative binding affinity [1]: 0.0021%

Oc1ccc(CCc2ccc(O)cc2)cc1
relative binding affinity [2]: 0.0363%

COc1nc(NC(C)C)nc(NC(C)C)n1
outcome (ChemClass_ERB: Misc): inactive

C[C@H](Cc1ccc(O)c(O)c1)[C@H](C)Cc1ccc(O)c(O)c1
relative binding affinity (ChemClass_ERB: Misc): 0.0309%

C[C@]12CC[C@H]3[C@@H](CCC4=CC(=O)CC[C@@]43C)[C@@H]1CC[C@@H]2O
outcome [1]: inactive

O=c1c(O)c(-c2ccc(O)cc2)oc2ccc(O)cc12
relative binding affinity [5]: 0.447%

O=c1cc(-c2ccccc2)oc2cc(O)ccc12
outcome [5]: inactive

O=C(c1ccc(O)cc1)c1ccc(O)cc1
relative binding affinity (ChemClass_ERB: Diphenylmethanes Benzophenone): 0.0035%

ClC1=C(Cl)[C@@]2(Cl)[C@@H]3[C@@H](Cl)[C@H](Cl)C[C@@H]3C1(Cl)C2(Cl)Cl
outcome (ChemClass_ERB: Misc): inactive

O=c1cc(-c2ccc(O)cc2)oc2ccc(O)cc12
relative binding affinity [5]: 0.151%

Nc1nc2ncc(CNc3ccc(C(=O)N[C@@H](CCC(=O)O)C(=O)O)cc3)nc2c(=O)[nH]1
outcome (ChemClass_ERB: Misc): inactive

O=c1c(-c2ccc(O)cc2)coc2cc(O)c(O)cc12
outcome (ChemClass_ERB: Phytoestrogens Isoflavones): inactive

CC(C)CCC[C@@H](C)[C@H]1CC[C@H]2[C@@H]3CC=C4C[C@@H](O)CC[C@]4(C)[C@H]3CC[C@]12C
outcome [1]: inactive

Oc1ccccc1Cc1ccccc1O
outcome [6]: inactive

CC[C@H](CC[C@@H](C)[C@H]1CC[C@H]2[C@@H]3CC=C4C[C@@H](O)CC[C@]4(C)[C@H]3CC[C@]12C)C(C)C
outcome [1]: inactive

O=C1CC(c2ccccc2)Oc2ccccc21 (stereo not given)
outcome [4]: inactive

ClC(Cl)=C(c1ccc(Cl)cc1)c1ccc(Cl)cc1
outcome [7]: inactive

C=CC1(C)OC(=O)N(c2cc(Cl)cc(Cl)c2)C1=O (stereo not given)
outcome (ChemClass_ERB: Misc): inactive

O=C(C(=O)c1ccc(O)cc1O)c1ccc(O)cc1O
relative binding affinity [2]: 0.209%

Clc1c(Cl)c(Cl)c(Cl)c(Cl)c1Cl
outcome (ChemClass_ERB: Misc): inactive

CC(C)CCCCCCOC(=O)c1ccccc1C(=O)OCCCCCCC(C)C
outcome (ChemClass_ERB: Misc): inactive

O=C(O)c1ccccc1C(c1ccc(O)cc1)c1ccc(O)cc1
relative binding affinity [6]: 0.00021%

O=S(=O)(O)c1ccc2c(N=Nc3ccc(S(=O)(=O)O)c4ccccc34)c(O)c(S(=O)(=O)O)cc2c1
outcome (ChemClass_ERB: Misc): inactive

O=c1cc(-c2ccccc2)oc2cc(O)cc(O)c12
outcome [5]: inactive

Clc1ccc(C(c2ccccc2Cl)C(Cl)(Cl)Cl)cc1 (stereo not given)
relative binding affinity [7]: 0.00141%

C[C@]12CCC(=O)C=C1CC[C@@H]1[C@@H]2[C@@H](O)C[C@]2(C=O)[C@@H](C(=O)CO)CC[C@@H]12
outcome [1]: inactive

CC(CCC(=O)O)(c1ccc(O)cc1)c1ccc(O)cc1
relative binding affinity [6]: 0.00074%

Nc1ccc(Cc2ccc(N)cc2)cc1
outcome (ChemClass_ERB: Misc): inactive

O=C(c1ccccc1O)c1ccccc1O
outcome [3]: inactive

C(/C=C/c1ccccc1)=C\c1ccccc1
outcome (ChemClass_ERB: Misc): inactive

CCc1c(-c2ccc(OC)cc2)c(=O)oc2cc(O)ccc12
relative binding affinity (ChemClass_ERB: Phytoestrogens Coumestans): 0.891%

Cc1cc(O)ccc1Cl
relative binding affinity (ChemClass_ERB: Phenols Alkyl): 0.00041%

Oc1ccccc1Cl
outcome (ChemClass_ERB: Phenols Alkyl): inactive

c1ccc2c(c1)Cc1cc3ccccc3cc1-2
outcome (ChemClass_ERB: Misc): inactive

C[C@H]1CCC[C@H](O)CCCCCc2cc(O)cc(O)c2C(=O)O1
relative binding affinity (ChemClass_ERB: Phytoestrogens Mycoestrogens): 30.2%

O=C(CCc1ccc(O)cc1)c1c(O)cc(O)cc1O
relative binding affinity (ChemClass_ERB: Phytoestrogens Chalconoids): 0.069%

O=c1cc(-c2ccccc2)oc2cc(O)c(O)c(O)c12
relative binding affinity [5]: 0.0009%

COc1ccc(C(c2ccc(O)cc2)C(Cl)(Cl)Cl)cc1 (stereo not given)
relative binding affinity [7]: 0.129%

O=C(O)/C=C/c1ccccc1
outcome (ChemClass_ERB: Misc): inactive

C[C@]12CC[C@@H]3c4cc(O)c(O)cc4CC[C@H]3[C@@H]1CC[C@@H]2O
relative binding affinity [8]: 29.5%

O=C(O)CCCCCCC(=O)O
outcome (ChemClass_ERB: Misc): inactive

CC(C)(c1ccc(O)cc1)c1ccc(O)cc1
relative binding affinity [6]: 0.0078%

C#C[C@]1(O)CC[C@H]2[C@@H]3CCc4cc(OC)ccc4[C@H]3CC[C@@]21C
relative binding affinity [8]: 2.24%

C(=C(c1ccccc1)c1ccccc1)c1ccccc1
relative binding affinity (ChemClass_ERB: DES Triphenylethylenes): 0.00165%

O=C1C=CC(=C(c2ccc(O)cc2)c2ccc(O)cc2)C=C1
relative binding affinity [6]: 0.0316%

CCCCCCCCOC(=O)c1ccccc1C(=O)OCCCCCCCC
outcome (ChemClass_ERB: Misc): inactive

Cn1c(=O)c2c(ncn2C)n(C)c1=O
outcome (ChemClass_ERB: Misc): inactive

ClC1(Cl)C2(Cl)C3(Cl)C4(Cl)C(Cl)(Cl)C5(Cl)C3(Cl)C1(Cl)C5(Cl)C24Cl (stereo not given)
outcome (ChemClass_ERB: Misc): inactive

O=C1c2c(O)cc(O)cc2O[C@H](c2ccc(O)c(O)c2)[C@H]1O
outcome [4]: inactive

CCCCCCCCCc1ccc(O)cc1
relative binding affinity (ChemClass_ERB: Phenols Alkyl): 0.0295%

Oc1ccc(OCc2ccccc2)cc1
relative binding affinity (ChemClass_ERB: Phenols Alkyloxy): 0.00036%

C[C@]12CC[C@@H]3c4ccc(O)cc4[C@@H](O)C[C@H]3[C@@H]1CC[C@@H]2O
relative binding affinity [8]: 0.708%

Oc1ccc(C(c2ccc(O)cc2)C(Cl)(Cl)Cl)cc1
relative binding affinity [7]: 0.251%

Oc1ccc(C(=C(Cl)Cl)c2ccc(O)cc2)cc1
relative binding affinity [7]: 2.63%

CC(C)(c1ccccc1)c1ccc(O)cc1
relative binding affinity [6]: 0.00501%

CC(C)(C)c1cc(Cc2cc(C(C)(C)C)c(O)c(C(C)(C)C)c2)cc(C(C)(C)C)c1O
outcome [6]: inactive

CCCCCCO
outcome (ChemClass_ERB: Misc): inactive

O=C1CC(c2ccc(O)cc2)Oc2ccccc21 (stereo not given)
relative binding affinity [4]: 0.00223%

Oc1ccccc1-c1ccccc1
outcome (ChemClass_ERB: Biphenyls nonchlorinated): inactive

O=P(Oc1ccccc1)(Oc1ccccc1)Oc1ccccc1
outcome (ChemClass_ERB: Misc): inactive
